One data set concerns Boophilus microplus. Nature of the data set: Boophilus microplus test (BOOPMI injection). It counts as in vivo. The following applies: 20 μg/animal, injected into the abdomen, after 7 days. How it is done:
Solvent: Dimethyl Sulphoxide To produce a suitable preparation of active compound, 10 mg of active compound are mixed with 0.5 ml of solvent, and the concentrate is diluted with water to the desired concentration. The active compound solution is injected into the abdomen (Boophilus microplus) and the animals are transferred into dishes and stored in a climatized room. The activity is monitored for deposition of fertile eggs. After 7 days, the activity in % is determined. 100% means that none of the ticks has laid fertile eggs.

The next data set relates to Ctenocephalides felis. Nature of the data set: Ctenocephalides felis oral (CTECFE). In kind it is in vivo. The following applies: 100 ppm in citrated cattle blood, after 2 days. How it is done: Solvent: 1 part by weight of dimethyl sulphoxide To produce a suitable preparation of active compound, 10 mg of active compound are mixed with 0.5 ml of dimethyl sulphoxide. One part of the concentrate is diluted with citrated cattle blood, and the desired concentration is prepared. 20 unfed adult fleas (Ctenocephalides felis) are placed into a chamber whose top and bottom ends are closed with gauze. A metal cylinder whose bottom end is closed with parafilm is placed onto the chamber. The cylinder contains the blood/active compound preparation, which can be taken up by the fleas through the parafilm membrane. After 2 days, the kill in % is determined. 100% means that all fleas have been killed; 0% means that none of the fleas have been killed.

A short description of data set [1]: logP by HPLC on reversed-phase columns (C 18), EU Guideline 79/831 Annex V.A8. In kind it is physicochemical. The following applies: for chromatographic logP: reversed-phase HPLC column (C 18).
The subject of another data set is Lucilia cuprina larvae. Nature of the data set: Lucilia cuprina test (LUCICU). It counts as in vivo. The following applies: 100 ppm, treated horse meat, after 2 days. The procedure: Solvent: Dimethyl Sulphoxide To produce a suitable preparation of active compound, 10 mg of active compound are mixed with 0.5 ml of dimethyl sulphoxide, and the concentrate is diluted with water to the desired concentration. Containers containing horse meat treated with the active compound preparation of the desired concentration are populated with Lucilia cuprina larvae. After 2 days, the kill in % is determined. 100% means that all larvae have been killed; 0% means that none of the larvae have been killed.

Data set [2] has as its system larvae of the mustard beetle (Phaedon cochleariae). Nature of the data set: Phaedon test (PHAECO spray treatment). In kind it is in vivo. Conditions: after 7 days. How it is done:
(§1) Solvents: 78.0 parts by weight of acetone • • 1.5 parts by weight of dimethyl formamide Emulsifier: 0.5 part by weight of alkylaryl polyglycol ether To produce a suitable preparation of active compound, 1 part by weight of active compound is mixed with the stated amounts of solvent and emulsifier, and the concentrate is diluted with emulsifier-containing water to the desired concentration. Discs of Chinese cabbage leaves (Brassica pekinensis) are sprayed with an active compound preparation of the desired concentration and, after drying, populated with larvae of the mustard beetle (Phaedon cochleariae). After 7 days, the activity in % is determined. 100% means that all beetle larvae have been killed; 0% means that none of the beetle larvae have been killed. The test was carried out and evaluated as described in Example B.4.

In data set [3] the test system is caterpillars of the army worm (Spodoptera frugiperda). Nature of the data set: Spodoptera frugiperda test (SPODFR spray treatment). Conditions: after 7 days. In kind it is in vivo. The procedure: as §1, with “maize” for “Chinese cabbage”, “(Zea mays)” for “(Brassica pekinensis)”, “caterpillars” for “larvae”, “army worm (Spodoptera frugiperda).” for “mustard beetle (Phaedon cochleariae).”, “caterpillars” for “beetle larvae”, “B.5.” for “B.4.”

A further data set concerns adult Musca domestica. Nature of the data set: Musca domestica test (MUSCDO). The following applies: treated sponge. In kind it is in vivo. How it is done:
Solvent: Dimethyl sulphoxide To prepare a suitable preparation of active compound, 10 mg of active component are mixed with 0.5 ml of dimethyl sulphoxide, and the concentrate is diluted with water to the desired concentration. Vessels containing a sponge which had been treated with the active compound preparation of the desired concentration are populated with adult Musca domestica. After the desired period of time, the kill in % is determined. 100% means that all flies have been killed; 0% means that none of the flies have been killed.

[4] abbreviates: * LC-MS in the acidic range, pH 2.7, 0.1% aqueous formic acid and acetonitrile.
Where [5] appears, read: ** LC-MS in the neutral range, pH 7.8, 0.001 molar aqueous ammonium bicarbonate and acetonitrile.

Broadly, the logP is the decadic logarithm of the partition coefficient of the neutral form, usually between octanol and water. A lower logP goes with a more hydrophilic compound. By chromatographic logP is commonly meant a lipophilicity value derived from retention on a column.

As to `CN(C)C=Nc1c(-c2cc(Cl)cc(C(F)(F)F)c2)c(C(F)(F)F)nn1-c1ncccn1` [Example 1-2], the “activity (no deposition of fertile eggs)” value in the data set with Boophilus microplus is on record as 95%. The kill in the data set with Ctenocephalides felis and in the data set on Lucilia cuprina larvae was 100% each time. Besides, the lipophilicity (logP) was 3.89* in data set [1] (setting [4]) and 3.84**; in data set [1] (setting [5]). Moreover, the “activity (beetle larvae killed)” value in data set [2] (100 g/ha) came to 100%.
Take `CN(C)C=Nc1c(-c2ccc(Cl)c(Cl)c2)c(C(F)(F)F)nn1-c1ncccn1` [Example 1-3]: in the data set on Boophilus microplus, the “activity (no deposition of fertile eggs)” value turned out to be 100%. Moreover, the kill with Ctenocephalides felis and in the data set with Lucilia cuprina larvae was 100% in each case. Besides, the logP in data set [1] (setting [4]) was 3.37*. The “activity (beetle larvae killed)” value in data set [2] (100 g/ha) amounted to 100%.
As for `CN(C)C=Nc1c(-c2ccc(Cl)cc2)c(C(F)(F)Cl)nn1-c1ncccn1` [Example 1-4], the logP in data set [1] (setting [4]) is given as 2.8*. Further, in data set [2] (100 g/ha), the “activity (beetle larvae killed)” value is reported as 100%.
For the compound `COc1ccc(-c2c(C(F)(F)F)nn(-c3ncccn3)c2N=CN(C)C)cc1` [Example 1-5], in the data set with Boophilus microplus, the “activity (no deposition of fertile eggs)” value was found to be 100%. Further, the lipophilicity (logP) in data set [1] (setting [4]) is 1.87*.
For `Cc1cnc(-n2nc(C(F)(F)F)c(-c3ccc(Cl)c(Cl)c3)c2N=CN(C)C)nc1` [Example 1-6], the logP in data set [1] (setting [4]) is on record as 3.58*.
`Cc1nn(-c2ncccn2)c(N=CN(C)C)c1-c1ccc(Cl)cc1` [Example 1-7]: the logP in data set [1] (setting [4]) is recorded as 1.09*. Further, in data set [2] (100 g/ha), the “activity (beetle larvae killed)” value turned out to be 100%.
For `CN(C)C=Nc1c(-c2cccc(Cl)c2)c(C(F)(F)F)nn1-c1ncccn1` [Example 1-8], in that order: 2.65* and 100%.
As to `CN(C)/C=N/c1c(-c2cc(Cl)cc(Br)c2)c(C(F)(F)F)nn1-c1ncccn1` [Example 1-9, N′-[4-(3-bromo-5-chlorophenyl)-1-(pyrimidin-2-yl)-3-(trifluoromethyl)-1H-pyrazol-5-yl]-N,N-dimethylimidoformamide], the “activity (no deposition of fertile eggs)” value in the data set on Boophilus microplus turned out to be 100%. Also, in data set [3] (100 g/ha), the “activity (caterpillars killed)” value was 100%. Moreover, the kill in the data set with Ctenocephalides felis and in the data set on Lucilia cuprina larvae was 100% throughout. Further, the chromatographic logP in data set [1] (pH 2.7, * LC-MS in the acidic range, pH 2.7, 0.1% aqueous formic acid and acetonitrile) amounted to 3.71. Moreover, the “activity (beetle larvae killed)” value in data set [2] (100 g/ha) stood at 100%.
As to `CCOC(C)=Nc1c(-c2cc(Cl)cc(C(F)(F)F)c2)c(C(F)(F)F)nn1-c1ncccn1` [Example 1-14], the “activity (no deposition of fertile eggs)” value in the data set with Boophilus microplus came to 80%. Moreover, the figures for the kill with adult Musca domestica (100 ppm), in the data set with Ctenocephalides felis and with Lucilia cuprina larvae were 80%, 90% and 100%, respectively. Moreover, the lipophilicity (logP) in data set [1] (setting [5]) is listed as 5.01**. Moreover, the “activity (beetle larvae killed)” value in data set [2] (100 g/ha) is 100%.
For the compound `FC(F)(F)c1cc(Cl)cc(-c2c(C(F)(F)F)nn(-c3ncccn3)c2N=Cc2ccc(Cl)cc2)c1` [Example 1-16], the “activity (no deposition of fertile eggs)” value with Boophilus microplus came out at 100%. Moreover, in data set [1] (setting [5]), the logP is given as 5.53**. For the same compound, the “activity (beetle larvae killed)” value in data set [2] (20 g/ha) and in data set [2] (100 g/ha) was 100% in each case.
With `FC(F)(F)c1cc(Cl)cc(-c2c(C(F)(F)F)nn(-c3ncccn3)c2N=Cc2ccccc2Br)c1` [Example 1-31], the “activity (no deposition of fertile eggs)” value in the data set with Boophilus microplus is 100%. Besides, the kill in the data set with adult Musca domestica (20 ppm) amounted to 90%; in the data set with Ctenocephalides felis, 90%; with Lucilia cuprina larvae, 100%. For the same compound, in data set [1] (setting [5]), the logP is 5.64**. Also, in data set [2] (100 g/ha), the “activity (beetle larvae killed)” value is on record as 100%.
Take `FC(F)(F)c1nn(-c2ncccn2)c(N=Cc2ccccc2)c1-c1cc(Br)c2c(c1)CCO2` [Example 1-32]: in the data set with Boophilus microplus, the “activity (no deposition of fertile eggs)” value stood at 100%. Besides, the kill with Ctenocephalides felis and with Lucilia cuprina larvae was 100% throughout. For the same compound, the logP in data set [1] (setting [5]) is 4.11**. The “activity (beetle larvae killed)” value in data set [2] (100 g/ha) amounted to 100%.
Turning to `FC(F)(F)c1cc(Cl)cc(-c2c(C(F)(F)F)nn(-c3ncccn3)c2N=Cc2cccc(Br)c2)c1` [Example 1-39], the “activity (no deposition of fertile eggs)” value in the data set on Boophilus microplus was found to be 100%. Further, the kill in the data set on adult Musca domestica (100 ppm) worked out at 100%; with Ctenocephalides felis, 80%; in the data set with Lucilia cuprina larvae it was 100%. Moreover, in data set [2] (100 g/ha), the “activity (beetle larvae killed)” value came to 100%.
Compound `COC=Nc1c(-c2ccc(Cl)c(C(F)(F)F)c2)c(C(F)(F)F)nn1-c1ncccn1` [Example 1-91] registered a logP in data set [1] (setting [4]) of 3.71.
Regarding `CN(C)C=Nc1c(-c2ccc(Cl)cc2)c(C(F)(F)F)nn1-c1ncc(Cl)cn1` [Example 1-108], in data set [1] (setting [4]), the logP was 3.47*.
Take `COc1nccnc1-n1nc(C(F)(F)F)c(-c2cc(Cl)cc(C(F)(F)F)c2)c1N=CN(C)C` [Example 2-1]: the kill with Ctenocephalides felis is reported as 80%. Besides, the log partition coefficient (logP) in data set [1] (setting [4]) is 4.52*.
Turning to `CCOc1nccnc1-n1nc(C(F)(F)F)c(-c2cc(Cl)cc(C(F)(F)F)c2)c1N=CN(C)C` [Example 2-2], the lipophilicity (logP) in data set [1] (setting [4]) is listed as 4.86*.
Same read-out and setting: next, `CC(C)Oc1nccnc1-n1nc(C(F)(F)F)c(-c2cc(Cl)cc(C(F)(F)F)c2)c1N=CN(C)C` [Example 2-3]: 5.17*.
Same read-out and setting: for `CN(C)C=Nc1c(-c2cc(Cl)cc(C(F)(F)F)c2)c(C(F)(F)F)nn1-c1cnccn1` [Example 2-4] the value was 4.32*.
As for `COc1ccc(C=Nc2c(-c3cc(Cl)c4c(c3)OCO4)c(C(F)(F)F)nn2-c2nccnc2OC)cc1` [Example 2-5], the “activity (no deposition of fertile eggs)” value in the data set on Boophilus microplus is on record as 100%. For the same compound, the kill with Ctenocephalides felis and in the data set on Lucilia cuprina larvae was 100% each time. Further, the logP in data set [1] (setting [5]) is 4.5**.
On to `COc1nccnc1-n1nc(C(F)(F)F)c(-c2cc(Cl)cc(C(F)(F)F)c2)c1N=Cc1ccccc1` [Example 2-9], for which the “activity (no deposition of fertile eggs)” value with Boophilus microplus was found to be 100%. The kill turned out to be 100% with adult Musca domestica (20 ppm), 90% in the data set on Ctenocephalides felis and 100% with Lucilia cuprina larvae. In data set [1] (setting [5]), the lipophilicity (logP) is given as 5.56**. The “activity (beetle larvae killed)” value in data set [2] (100 g/ha) worked out at 100%.
Turning to `COc1ccc(C=Nc2c(-c3cc(Cl)cc(C(F)(F)F)c3)c(C(F)(F)C(F)F)nn2-c2nccnc2OC)cc1` [Example 2-10], the logP in data set [1] (setting [5]) is 5.29**.
On to `COc1ccc(C=Nc2c(-c3cc(Cl)c4c(c3)OCO4)c(C(F)(F)C(F)F)nn2-c2nccnc2OC)cc1` [Example 2-12], for which the “activity (caterpillars killed)” value in data set [3] (100 g/ha) was 100%. Besides, the logP in data set [1] (setting [5]) was 4.41**. Further, in data set [2] (100 g/ha), the “activity (beetle larvae killed)” value is 100%.
Regarding `COc1nccnc1-n1nc(C(F)(F)F)c(-c2cc(Cl)c(Cl)c(Cl)c2)c1/N=C/c1ccccc1` [Example 2-15, 1-(3-methoxypyrazin-2-yl)-N-phenylmethylene-4-(3,4,5-trichlorophenyl)-3-(trifluoromethyl)-1H-pyrazol-5-amine], in the data set with Boophilus microplus, the “activity (no deposition of fertile eggs)” value is recorded as 100%. Besides, the figures for the kill in the data set with Ctenocephalides felis and in the data set with Lucilia cuprina larvae were 90% and 100%, respectively. In data set [1] (pH 7.8, ** LC-MS in the neutral range, pH 7.8, 0.001 molar aqueous ammonium bicarbonate and acetonitrile), the chromatographic logP worked out at 6.03.
For the compound `FC(F)(F)c1cc(Cl)cc(-c2c(C(F)(F)F)nn(-c3ncccn3)c2NCc2ccccc2)c1` [compound (XX), reference compound], the “activity (caterpillars killed)” value in data set [3] (20 g/ha) is on record as 0%. In addition, the “activity (beetle larvae killed)” value in data set [2] (4 g/ha) is reported as 0%.
Turning to `FC(F)(F)c1cc(Cl)cc(-c2c(C(F)(F)F)nn(-c3ncccn3)c2NCc2ccc(Cl)cc2)c1` [compound (XXIII), reference compound], in data set [2] (20 g/ha), the “activity (beetle larvae killed)” value is listed as “no activity”.

The record behind these values is patent US8629273B2, “Diazinylpyrazolyl compounds” (Bayer Intellectual Property GmbH, priority 2009, dated 2014).
